# According to patent US9408832B2, “LIM kinasemodulating agents for neurofibromatoses therapy and methods for screening for same” (University of Central Florida Research Foundation, Inc., priority 2012, dated 2016):
# Several values for one entry are separate records, joined by “and”; a condition that tells them apart may be missing. Equal entries are not always repeated. Entries after “also recorded” stand apart in the source; their conditions may differ.
# What was measured:
# [1] = test system: mouse merlin-null Schwann cells; assay: MultiTox-Fluor cell viability assay with merlin-null Schwann cells (NF2-MTC)
# Method: To ascertain whether this cell line was amenable to a HTS platform, the present inventors tested cell adherence and growth on several types of 384-well plates. Wells were seeded at varying cell densities (2,500-20,000 cells/well) and the ratio of live:dead cells was measured 24 hours later using the MultiTox-Fluor Multiplex Cytotoxicity Assay (Promega). This assay uses fluorescent probes to measure protease activities from live and dying cells. […] Therefore, the DMSO concentration for screening will be maintained at 0.5%.
# [2] = test system: mouse merlin-null Schwann cells; assay: BrdU/7-AAD flow cytometry assay; assay type: cell-based
# Method: (§1) FIGS. 11A-D. Phenotypic Proliferation Assays. (A) Merlin-null Schwann cells (384-well format) were treated with the indicated compounds and concentrations for 24 hours and labeled with EdU during the last 9 hours. Incorporation of EdU into S-phase cells was read on a Biotek H1 Hybrid reader. (B) The plate was also imaged with a Trophos high resolution fluorescence Plate Runner. (C). […] The cell population profile is shown and was analyzed using the ModFit program. (D). Merlin-null Schwann cells were grown as in C but were labeled with BrdU during the final 3 hours of treatment then stained with 7AAD. The distribution of BrdU- and 7AAD-labelled cells is shown and was analyzed with Diva program. The BD Cantos II flow cytometer was used above.
# In yet another aspect, identification of compounds that affect proliferation of Merlin-null mouse Schwann cells can be performed by conducting a Click-iT EdU Microplate Assay (Life Technologies) in the 384 well-plate format and then follow-up with BrdU/7AAD and propidium iodide flow cytometer assays. […] The EdU-Click-iT assay uses a 2-step procedure to identify cells in the S-phase of the cell cycle. EdU (5-ethynyl-2′-deoxyuridine) is a DNA analog that has been modified with an alkyne and is incorporated by cells in S phase. It reacts with Alexa-Fluor-Oregon green azide in the presence of a copper solution to form a covalent bond. Fluorescence emission is measured on a Hybrid HT plate reader (FIG. 11A) as well as on a Trophos Plate RUNNER HD that captures images of the wells (FIG. 11B). This allows confirmatory cell counts to be obtained. Cell cycle profiles were collected using propidium iodide (PI) labeling of log-phase growing Merlin-null Schwann cells (FIG. 11C). The results were confirmed by acquiring the ratio of BrdU-positive to total 7AAD-labelled cells in an independent assay (FIG. 11D).
# caspase 3/7 activity = assay: Caspase-3/7 activity (Apo-ONE Homogeneous Assay) in merlin-null Schwann cells; assay type: cell-based, mouse; settings: for mechanism of apoptotic death in context of the Apo-One assay result: 384-well format, 8 hours
# Method: (§2) FIGS. 10 A-C. Phenotypic Apoptosis Assays. (A). Merlin-null Schwann cells in a 384-well format were incubated with the indicated compounds for 8 hours. Caspase-3/7 activity was measure with Apo-ONE Homogeneous Assay (Promega). n=32 wells. (B). Merlin-null Schwann cells in a 6-well format were treated with compounds (10 uM) for 24 hours. Membrane asymmetry was detected with Violet Ratiometric assay and read on a BD Cantos II flow cytometer. (C). Population distribution for B is shown.
# In yet another aspect, compounds may be identified which induce programmed cell death or inhibit proliferation of Merlin-null Schwann cells. Merlin-pathway assays may be conducted to identify the subset of compounds that modulate the activity of known merlin pathways. The effector caspase cascade is activated in many extrinsic and intrinsic cell death pathways^29. The CPCCG has an established HTS assay that measures caspase-3 activity based on the cleavage and enzymatic degradation of a fluorescent substrate containing the amino acid motif DEVD (DEVD-7-amino-4-trifluoromethyl coumarin, DEVD-AFC). Briefly, Merlin-null Schwann cells may be dispensed and test compounds added, and incubated as described for the primary screening assay. The effect of compounds on caspase-3 activity can be measured by first lysing the cells and centrifuging to pellet the debris. Next, 20 μl of 2× reaction buffer may be added, followed by 1 μL, DTT (0.01M final). Finally, 1uL of DEVD-AFC may be added and the plate may be incubated at 37° C. for 1.5 h. Enzyme activity may be measured on an Envision plate reader at Ex400 nm/Em505 nm. The enzyme activity may be calculated from a standard curve generated using recombinant caspase-3 enzyme (R&D System, Inc.) and expressed as fold-increase in activity. […] Transfer of phosphatidylserine and phosphatidylethanolamine from the inner to the outer leaflet of the plasma membrane changes the membrane potential that is detected by F2N12S. […]
# [3] = test system: mouse merlin-null Schwann cells; assay: Violet Ratiometric membrane asymmetry / dead cell apoptosis flow cytometry assay; assay type: cell-based; settings: 24 hours
# Method: as §2
# In yet another aspect, compounds may be identified which induce programmed cell death or inhibit proliferation of Merlin-null Schwann cells. Merlin-pathway assays may be conducted to identify the subset of compounds that modulate the activity of known merlin pathways. The effector caspase cascade is activated in many extrinsic and intrinsic cell death pathways^29. […] The effect of compounds on caspase-3 activity can be measured by first lysing the cells and centrifuging to pellet the debris. […] Enzyme activity may be measured on an Envision plate reader at Ex400 nm/Em505 nm. The enzyme activity may be calculated from a standard curve generated using recombinant caspase-3 enzyme (R&D System, Inc.) and expressed as fold-increase in activity. […] Transfer of phosphatidylserine and phosphatidylethanolamine from the inner to the outer leaflet of the plasma membrane changes the membrane potential that is detected by F2N12S. […]
# [4] = test system: mouse merlin-null Schwann cells; assay: Crystal Violet cell number assay; assay type: cell-based
# cofilin phosphorylation = assay: Cofilin phosphorylation in mouse Schwann cells (summary statement); assay type: cell-based
# [5] = test system: cofilin phosphorylation (substrate for LIMK); assay: Western blot of cofilin phosphorylation in normal rat Schwann cells; assay type: cell-based; settings: 6 hours
# [6] = test system: mouse merlin-null Schwann cells; assay: Propidium iodide flow cytometry cell cycle assay; assay type: cell-based
# Method: as §1
# In yet another aspect, identification of compounds that affect proliferation of Merlin-null mouse Schwann cells can be performed by conducting a Click-iT EdU Microplate Assay (Life Technologies) in the 384 well-plate format and then follow-up with BrdU/7AAD and propidium iodide flow cytometer assays. […] The EdU-Click-iT assay uses a 2-step procedure to identify cells in the S-phase of the cell cycle. […] Fluorescence emission is measured on a Hybrid HT plate reader (FIG. 11A) as well as on a Trophos Plate RUNNER HD that captures images of the wells (FIG. 11B). […]
# [7] = 5 μM, 24 hr, BrdU for the last 3 hr
smiles,measurement,setting,value
"CO[C@H]1C[C@@H]2CC[C@@H](C)[C@@](O)(O2)C(=O)C(=O)N2CCCC[C@H]2C(=O)O[C@H]([C@H](C)C[C@@H]2CC[C@@H](O)[C@H](OC)C2)CC(=O)[C@H](C)/C=C(\C)[C@@H](O)[C@@H](OC)C(=O)[C@H](C)C[C@H](C)/C=C/C=C/C=C/1C [rapamycin, Rapamycin]","viability of cells, % of the DMSO control","[1]; 50 μM rapamycin, 384-well plate, 5,000 cells/well",20+/−1.4%
FC(F)(F)c1ccc(/C=C/c2nc(COc3ccc(CCCCn4ccnn4)cc3)co2)cc1 [TAK 165],MTC viability compared to DMSO control (in words),"[1]; TAK 165 50 nM, positive control",effective in reducing MTC viability
N#C/C(=C\c1ccc(-c2cc(Cl)ccc2Cl)o1)C(=O)Nc1cccc2ncccc12 [AGK2],anti-proliferative effects on the cells,"[2]; 24 hours of drug treatment, S-phase labelling for the final 3 hours",did not reveal clear anti-proliferative effects
same,mechanism of apoptotic death in context of the Apo-One assay result,caspase 3/7 activity,caspase3/7-independent
"COc1ccc2c(c[n+](C)c3c4cc5c(cc4ccc23)OCO5)c1OC.[Cl-] [CHE, cheleryithrine chloride]","apoptotic death (Q1+Q3), share of Merlin-null Schwann cells","[3]; 10 uM, 6-well format, flow cytometer",93%
CC(C)C(=O)Nc1ncc(-c2cc(C(F)F)nn2-c2c(Cl)cccc2Cl)s1 [BMS-5],change in the number of cells after 72 hours,[4]; 2 μM,no change
same,cell number compared to untreated or DMSO controls,"[4]; 1 and 2 μM, 72 hours",decrease in the cell number
same,number of cells with plasma membrane asymmetry,[3]; 2 μM,does not significantly increase
same,cofilin phosphorylation in mouse Schwann cells (in words),cofilin phosphorylation,reduced cofilin phosphorylation
same,IC50,"[5]; Western blot, read-out: amount needed to reduce cofilin phosphorylation by 50% of the untreated control",200 nM
same,"cofilin phosphorylation (dose response, in words)",[5]; increasing BMS-5,reduces the amount of cofilin phosphorylation; also recorded: cofilin phosphorylation decreases
same,cells in G0/G1 and S phase,[2]; [7],massive depletion
same,number of cells in G2/M,[2]; [7],moderate increase; also recorded: moderately increase
same,mechanism of apoptotic death in context of the Apo-One assay result,caspase 3/7 activity,caspase3/7-independent
same,difference in caspase 3/7 activity versus untreated or DMSO controls,"caspase 3/7 activity; 8 hours incubation, increasing doses",no significant difference
same,increase of cells in G2/M phase,"[6]; 5 μM, 17 hr, Propidium Iodine staining",more than 100%
same,"cell cycle profile (PI labeling and BrdU profiles, in words)","[6]; 5 uM, 22 hours",accumulate in G2/M
same,MTC number / proliferation with increasing concentration (in words),"[1]; 24 hours, various inhibitor concentrations",inhibited proliferation; also recorded: dose-respondent inhibition
same,MTC viability compared to DMSO control (in words),"[1]; BMS-5 5 μM, 24 hours",reduced MTC viability
same,EC50,"[1]; read-out: EC50: concentration that reduces the number of merlin-null Schwann cells by 50% of control, 24 hours, 96-well format, 32 replicates/concentration",1960 nM and ~2000 nM
